Laboratory results taken from US9290476B2, “Methylene linked quinolinyl modulators of RORγt” (Janssen Pharmaceutica NV, priority 2012, dated 2016).
Where a name gives a salt, the structure may show the parent alone.

Experiments:
[1] = target: human RORγt ligand binding domain (RORγt LBD) (Homo sapiens (Human), UniProt P51449); assay: RORγt ThermoFluor assay (thermal shift binding affinity); settings: estimated from thermal shift
Protocol: This approach is applicable to a wide variety of systems, and rigorous in theoretical interpretation through quantitation of equilibrium binding constants (KD).
The shift in the melting point described as a ΔTm is proportional to the concentration and affinity of the ligand.
RORγt ThermoFluor® Assay Construct
Protein and compound solutions are dispensed into black 384-well polypropylene PCR microplates (Abgene) and overlayed with silicone oil (1 μL, Fluka, type DC 200) to prevent evaporation.
Bar-coded assay plates are robotically loaded onto a thermostatically controlled PCR-type thermal block and then heated at a typical ramp-rate of 1° C./min for all experiments. Fluorescence was measured by continuous illumination with UV light (Hamamatsu LC6) supplied via fiber optic and filtered through a band-pass filter (380-400 nm; >6 OD cutoff). Fluorescence emission of the entire 384-well plate was detected by measuring light intensity using a CCD camera (Sensys, Roper Scientific) filtered to detect 500±25 nm, resulting in simultaneous and independent readings of all 384 wells. Images were collected at each temperature, and the sum of the pixel intensity in a given area of the assay plate was recorded versus temperature. Reference wells contained RORγt without compounds, and the assay conditions were as follows: • 0.065 mg/mL RORγt • 60 μM 1,8-ANS • 100 mM Hepes, pH 7.0 • 10 mM NaCl • 2.5 mM GSH • 0.002% Tween-20
Project compounds were arranged in a pre-dosed mother plate (Greiner Bio-one) wherein compounds are serially diluted in 100% DMSO by 1:2 from a high concentration of 10 mM over 12 columns within a series (column 12 is a reference well containing DMSO, no compound). The compounds were robotically dispensed directly into assay plates (1×=46 nL) using a Hummingbird capillary liquid handling instrument (Digilab). Following compound dispense, protein and dye in buffer was added to achieve the final assay volume of 3 μL, followed by 1 μL of silicone oil.

human RORγt LBD = human RORγt LBD (Homo sapiens (Human), UniProt P51449); assay: RORγt reporter assay (GAL4-RORγt LBD luciferase in HEK293T cells); format: cell-based; settings: for IC50: HEK293T cells, 24 hours compound treatment; for inhibition at 6 µM: HEK-293T, read-out: RORγt reporter Assay, % inhibition @ 6 μM, HEK293T cells, 6 μM
human RORγt LBD, sequence (P51449 258-518): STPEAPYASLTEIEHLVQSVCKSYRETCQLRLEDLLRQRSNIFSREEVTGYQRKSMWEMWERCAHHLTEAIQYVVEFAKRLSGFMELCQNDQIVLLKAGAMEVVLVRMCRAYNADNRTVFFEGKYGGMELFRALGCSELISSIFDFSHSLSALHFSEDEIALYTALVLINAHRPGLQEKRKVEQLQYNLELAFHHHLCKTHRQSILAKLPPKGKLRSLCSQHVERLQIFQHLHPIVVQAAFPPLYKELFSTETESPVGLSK
Excerpt: A reporter assay was used to test functional activity of RORγt modulatory compounds on transcriptional activation driven by the RORγt LBD. Cells used in the assay were co-transfected with two constructs. The first construct, pBIND-RORγt LBD, contained the wild type human RORγt LBD fused to the DNA binding domain of the GAL4 protein. The second construct, pGL4.31 (Promega Cat no. C935A), contained multiple GAL4 responsive DNA elements upstream of firefly luciferase. […] The mutant construct was called pBIND-RORγt-AF2.
The pBIND vector contains the GAL4 DNA Binding Domain (GAL4 DBD) and the renilla luciferase gene under control of the SV40 promoter. Renilla luciferase expression serves as a control for transfection efficiency and cell viability.
The reporter assay was performed by transiently transfecting HEK293T cells with 5 ng of pBIND-RORγt LBD or pBIND-RORγt LBD-AF2 and 5 μg pGL4.31 (Promega Cat no. C935A) using Fugene 6 ([…] Cat no. E2691) at a 1:6 ratio of DNA: Fugene 6 in a T-75 flask in which cells were at least 80% confluent. Twenty four hours after bulk transfection, cells were plated into 96-well plates at 50,000 cells/well in phenol-red free DMEM containing 5% Lipid Reduced FCS and Pen/Strep. Six hours after plating, cells were treated with compounds for 24 hours. Media was removed and cells were lysed with 50 μL 1× Glo Lysis Buffer (Promega). Dual Glo Luciferase Reagent (50 μL/well) was then added and firefly luciferase luminescence was read on an Envision after a ten minute incubation. Finally, Stop and Glo reagent (50 μL/well) was added and renilla luciferase luminescence was read on an Envision after a ten minute incubation. To calculate the effect of compounds on RORγt activity, the ratio of firefly to renilla luciferase was determined and plotted against compound concentration. Agonist compounds increase RORγt-driven luciferase expression, and antagonist or inverse agonist compounds decrease luciferase expression.

human RORγt ligand binding domain (RORγt LBD), sequence (P51449 other isoform, or with tags, fused parts or gaps): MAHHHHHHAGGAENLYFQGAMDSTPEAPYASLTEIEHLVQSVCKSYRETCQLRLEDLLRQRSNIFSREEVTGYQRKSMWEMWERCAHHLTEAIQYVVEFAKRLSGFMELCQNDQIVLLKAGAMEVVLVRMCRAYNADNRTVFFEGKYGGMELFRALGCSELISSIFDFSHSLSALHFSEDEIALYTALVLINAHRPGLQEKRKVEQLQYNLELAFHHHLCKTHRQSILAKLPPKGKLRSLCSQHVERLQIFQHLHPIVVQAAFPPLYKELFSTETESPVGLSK

Kd [1] [µM]	IC50 (human RORγt LBD) [µM]	inhibition at 6 µM (human RORγt LBD) [%]	SMILES
0.076	0.12	102	COc1nc2ccc(C(O)(c3ccc(C#N)cc3)c3cncn3C)cc2c(C#N)c1Cc1ccc(-n2cccn2)cc1 (single isomer, unassigned) [Example 76B, 3-(4-(1H-Pyrazol-1-yl)benzyl)-6-((4-cyanophenyl)(hydroxy)(1-methyl-1H-imidazol-5-yl)methyl)-2-methoxyquinoline-4-carbonitrile]
0.00077	0.021	102	CCc1nc2ccc(C(O)(c3cnnn3C)C3CN(C(=O)OC(C)(C)C)C3)cc2c(Cl)c1Cc1ccc(C(F)(F)F)cc1 (stereo not drawn) [Example 89, tert-Butyl 3-((4-chloro-2-ethyl-3-(4-(trifluoromethyl)benzyl)quinolin-6-yl)(hydroxy)(1-methyl-1H-1,2,3-triazol-5-yl)methyl)azetidine-1-carboxylate]
0.33	1.8	77	Cn1cc(C(O)(c2ccc(Cl)cc2)c2ccc3nc(Cl)c(Cc4ccccc4)c(Cl)c3c2)cn1 (stereo not drawn) [Example 49, (3-Benzyl-2,4-dichloroquinolin-6-yl)(4-chlorophenyl)(1-methyl-1H-pyrazol-4-yl)methanol.TFA]
0.0027	6.6	57	CCOc1nc2ccc(C(O)(c3ccc(OC)nc3)c3cncs3)cc2c(Cl)c1Cc1ccccc1 (stereo not drawn) [Example 19, (3-Benzyl-4-chloro-2-ethoxyquinolin-6-yl)(6-methoxypyridin-3-yl)(thiazol-5-yl)methanol]
0.22	0.48	85	COc1nc2ccc(C(O)(c3ccc(N(C)C)cc3)c3cncn3C)cc2c(Cl)c1Cc1ccc(-n2cccn2)cc1 (stereo not drawn) [Example 26, (3-(4-(1H-Pyrazol-1-yl)benzyl)-4-chloro-2-methoxyquinolin-6-yl)(4-(dimethylamino)phenyl)(1-methyl-1H-imidazol-5-yl)methanol.TFA]
0.091	0.56	74	CCOc1nc2ccc(C(O)(c3ccc(Cl)cc3)c3cncn3C)cc2c(Cl)c1Cc1ccccc1 (stereo not drawn) [Example 14, (3-Benzyl-4-chloro-2-ethoxyquinolin-6-yl)(4-chlorophenyl)(1-methyl-1H-imidazol-5-yl)methanol.TFA]
0.0045	> 6	41	COc1ccc(C(O)(c2ccc3nc(Cl)c(Cc4ccccc4)c(Cl)c3c2)c2cncs2)cn1 (stereo not drawn) [Example 18, (3-Benzyl-2,4-dichloroquinolin-6-yl)(6-methoxypyridin-3-yl)(thiazol-5-yl)methanol]
1.1	1	101	Cn1cncc1C(O)(c1ccc(C(F)(F)F)nc1)c1ccc2nc(C#N)c(Cc3ccc(-n4cccn4)cc3)cc2c1 (single isomer, unassigned) [Example 70B, 3-(4-(1H-Pyrazol-1-yl)benzyl)-6-(hydroxy(1-methyl-1H-imidazol-5-yl)(6-(trifluoromethyl)pyridin-3-yl)methyl)quinoline-2-carbonitrile]
0.0084	0.057	100	COc1nc2c(C)cc(C(O)(c3cncn3C)c3cncn3C)cc2c(Cl)c1Cc1ccc(S(C)(=O)=O)cc1 [Example 57, (4-Chloro-2-methoxy-8-methyl-3-(4-(methylsulfonyl)benzyl)quinolin-6-yl)bis(1-methyl-1H-imidazol-5-yl)methanol.Succinate]
> 81	2.4	85	Cn1cncc1C(O)(c1ccc(Cl)cc1)c1ccc2nc(O)c(Cc3ccc(-n4cccn4)cc3)c(Cl)c2c1 (single isomer, unassigned) [Example 55B, 3-(4-(1H-pyrazol-1-yl)benzyl)-4-chloro-6-((4-chlorophenyl)(hydroxy)(1-methyl-1H-imidazol-5-yl)methyl)quinolin-2-ol]
0.099	2.3	77	OC(c1cccnc1)(c1ccc2nc(Cl)c(Cc3cccc(Cl)c3)cc2c1)c1cncs1 (stereo not drawn) [Example 10]
